Results published in patent US7273715B2 (priority 2003, dated 2007).
Like-named read-outs stand apart in the source and are kept apart here. Peptide text beside a SMILES is read from it. * marks the point of attachment. Cbz = O=C(OCc1ccccc1)*

Key:
GS-9005 hydrolase A [1] = biological target: T1, GS-9005 hydrolase A (Homo sapiens, UniProt P42785); format: biochemical
T1 construct: Varying amounts of purified GS-9005 hydrolase A and control enzymes; from tissue; host or cells: human peripheral blood mononuclear cells (PBMC), purified by Q15 flow-through, SP-Sepharose, Butyl Sepharose HIC and lentil lectin chromatography
T1 sequence (P42785 46-496): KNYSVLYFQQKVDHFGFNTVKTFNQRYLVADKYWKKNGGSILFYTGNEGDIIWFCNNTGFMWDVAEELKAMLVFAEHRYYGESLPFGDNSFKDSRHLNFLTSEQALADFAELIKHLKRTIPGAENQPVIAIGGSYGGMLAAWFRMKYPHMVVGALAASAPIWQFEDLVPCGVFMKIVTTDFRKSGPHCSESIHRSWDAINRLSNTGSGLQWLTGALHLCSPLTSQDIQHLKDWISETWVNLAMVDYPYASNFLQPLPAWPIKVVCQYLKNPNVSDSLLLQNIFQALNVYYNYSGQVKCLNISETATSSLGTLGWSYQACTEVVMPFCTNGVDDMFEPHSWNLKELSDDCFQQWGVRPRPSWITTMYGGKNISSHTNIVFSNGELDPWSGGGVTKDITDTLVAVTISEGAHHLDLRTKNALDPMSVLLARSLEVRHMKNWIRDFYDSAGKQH

[2] = biological target: Human Prolylcarboxypeptidase (Homo sapiens, UniProt P42785); conditions: read-out: Inhibition profile, ProlylcarboxyPeptidase; cited from earlier work
GS-9005 hydrolase A [3] = biological target: T1, GS-9005 hydrolase A; format: biochemical; remark: listed apart in the source
[4] = pH 6.5, read-out: IC50 (inhibition profile, 9005 Hydrolase A)
[5] = read-out: concentration at which GS-9005 hydrolase A is inhibited by 50%

O=C[C@@H]1CCCN1C(=O)[C@@H]1CCCN1C(=O)OCc1ccccc1 [Cbz-pro-pro-COH, Carboxybenzoyl-Pro-Pro-COH] (Cbz-Pro-Pro-aldehyde)
inhibition of GS-9005 hydrolase A (in words) (GS-9005 hydrolase A [1]): inhibited
IC50 (GS-9005 hydrolase A [1]; [4]): 1 µM
IC50 (GS-9005 hydrolase A [1]; [5]): ~1 µM
IC50 [2]: 1 µM

CCOC(=O)[C@H](C)OP(=O)(COc1ccc(C[C@H](NC(=O)O[C@H]2CO[C@H]3OCCC32)[C@H](O)CN(CC(C)C)S(=O)(=O)c2ccc(OC)cc2)cc1)Oc1ccccc1 (stereo partly shown) [Compound A]
specific activity of GS-9005 hydrolase A against the compound (comparison in words) (GS-9005 hydrolase A [3]): greater than its specific activity against Compound L

CCOC(=O)[C@H](C)NP(=O)(COc1ccc(C[C@@H]2[C@H](O)[C@@H](O)[C@@H](Cc3ccc(OC)cc3)N(Cc3ccc4[nH]ncc4c3)C(=O)N2Cc2ccc3[nH]ncc3c2)cc1)N[C@@H](C)C(=O)OCC [Compound BB]
specific activity of GS-9005 hydrolase A against the compound (comparison in words) (GS-9005 hydrolase A [3]): approximately equivalent specific activity

CCOC(=O)[C@H](C)NP(=O)(COc1ccc(C[C@@H]2[C@H](O)[C@@H](O)[C@@H](Cc3ccc(OC)cc3)N(Cc3ccc4[nH]ncc4c3)C(=O)N2Cc2ccc3[nH]ncc3c2)cc1)Oc1ccccc1 (stereo partly shown) [Compound CC]
specific activity of GS-9005 hydrolase A against the compound (comparison in words) (GS-9005 hydrolase A [3]): approximately equivalent specific activity

CCOC(=O)[C@H](C)OP(=O)(COc1ccc(C[C@@H]2[C@H](O)[C@@H](O)[C@@H](Cc3ccc(OC)cc3)N(Cc3ccc4[nH]ncc4c3)C(=O)N2Cc2ccc3[nH]ncc3c2)cc1)Oc1c(C)cccc1C (stereo partly shown) [Compound EE]
specific activity of GS-9005 hydrolase A against the compound (comparison in words) (GS-9005 hydrolase A [3]): greater than its specific activity against Compound W

CCOC(=O)[C@H](C)OP(=O)(CCNCc1ccc(Cn2c(COC(N)=O)nc(C(C)C)c2Sc2cc(Cl)cc(Cl)c2)cc1)Oc1ccccc1 (stereo partly shown) [Compound GG]
specific activity of GS-9005 hydrolase A against the compound (comparison in words) (GS-9005 hydrolase A [3]): greater than its specific activity against Compound DD

CCOC(=O)COP(=O)(COc1ccc(Cn2c(COC(N)=O)nc(C(C)C)c2Sc2cc(Cl)cc(Cl)c2)cc1)Oc1ccccc1 (stereo not shown) [Compound HH]
specific activity of GS-9005 hydrolase A against the compound (comparison in words) (GS-9005 hydrolase A [3]): greater than its specific activity against Compound I

CCSc1ccc(CN2CCCN(Cc3cccnc3)CC2)cc1 [Compound JJ]
specific activity of GS-9005 hydrolase A against the compound (comparison in words) (GS-9005 hydrolase A [3]): greater than its specific activity against Compound AA

CCOC(=O)[C@H](C)NP(=O)(COc1ccc(Cn2c(COC(N)=O)nc(C(C)C)c2Sc2cc(Cl)cc(Cl)c2)cc1)Oc1ccccc1 (stereo partly shown) [Compound KK]
specific activity of GS-9005 hydrolase A against the compound (comparison in words) (GS-9005 hydrolase A [3]): greater than its specific activity against Compound FF

C=C(OC(C)C)[C@H](C)N[P@](=O)(CO[C@H](C)Cn1cnc2c(C)ncnc21)Oc1ccccc1 [Compound K]
specific activity of GS-9005 hydrolase A against the compound (comparison in words) (GS-9005 hydrolase A [3]): approximately equivalent specific activity

COC(=O)[C@H](C)NP(=O)(COc1ccc(Cn2c(COC(N)=O)nc(C(C)C)c2Sc2cc(Cl)cc(Cl)c2)cc1)Oc1ccccc1 (stereo partly shown) [Compound LL]
specific activity of GS-9005 hydrolase A against the compound (comparison in words) (GS-9005 hydrolase A [3]): approximately equivalent specific activity

COC(=O)[C@H](C)N[P@](=O)(CO[C@H](C)Cn1cnc2c(N)ncnc21)Oc1ccccc1 [Compound U]
specific activity of GS-9005 hydrolase A against the compound (comparison in words) (GS-9005 hydrolase A [3]): approximately equivalent specific activity

C=C(OC(C)C)C(C)OP(=O)(CCNCc1ccc(C[C@H](NC(=O)O[C@H]2CO[C@H]3OCC[C@H]32)[C@H](O)CN(CC(C)C)S(=O)(=O)c2ccc(OC)cc2)cc1)Oc1ccccc1 (stereo partly shown) [Compound X]
specific activity of GS-9005 hydrolase A against the compound (comparison in words) (GS-9005 hydrolase A [3]): greater than its specific activity against Compound V

CCOC(=O)[C@H](C)OP(=O)(CCN1CCN(C(=O)c2c3c(c(O)c4ncccc24)C(=O)N(Cc2ccc(F)cc2)C3)CC1)Oc1ccccc1 (stereo partly shown) [Compound Y]
specific activity of GS-9005 hydrolase A against the compound (comparison in words) (GS-9005 hydrolase A [3]): greater than its specific activity against Compound B

C=C(OCC)[C@H](C)OP(=O)(CCNC(=O)c1c2c(c(O)c3ncccc13)C(=O)N(Cc1ccc(F)cc1)C2)Oc1ccccc1 (stereo partly shown) [Compound Z]
specific activity of GS-9005 hydrolase A against the compound (comparison in words) (GS-9005 hydrolase A [3]): approximately equivalent specific activity

O=c1oc(Cl)c(Cl)c2ccccc12 [DCI, 3,4 dichloroisocoumarin]
inhibition of GS-9005 hydrolase A (in words) (GS-9005 hydrolase A [1]): inhibited

O=S(=O)(F)Cc1ccccc1 [PMSF]
IC50 (GS-9005 hydrolase A [1]; [4]): 200 µM
IC50 (GS-9005 hydrolase A [1]; [5]): ~200 µM
IC50 [2]: 100 to 300 µM
